The target in the experiment is T1, KcsA (Streptomyces lividans, UniProt P0A334).
T1 sequence (P0A334 1-160): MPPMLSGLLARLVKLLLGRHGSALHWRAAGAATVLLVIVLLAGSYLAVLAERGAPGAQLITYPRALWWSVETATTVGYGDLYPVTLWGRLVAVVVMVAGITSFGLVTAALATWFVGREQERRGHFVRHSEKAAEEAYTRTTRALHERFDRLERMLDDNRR
Nature of the experiment: fluorescence titration. The experiment is classed as binding.

This note sets out measurements from PMC3466778 (Biochemistry, 2012).

As a reminder, the Kd is a measure of binding affinity in units of concentration. Lower therefore signals tighter binding. Molecule `CN(C)c1cccc2c(S(=O)(=O)NCCCCCCCCCCC(=O)O)cccc12` [Dauda] yielded a Kd of 470 ± 100 nM.
